Holding throughout (type): ADME, organism-based
Settings in all cases: in vivo

The species named for series [1] is Mus musculus. As to the kind of experiment: Percent of blood clearance in bone of mice at 24 hr.
The species entered for series [2] is Mus musculus. Kind of series: Percent of blood clearance in bone of mice at 0.5 h.
The species entered for series [3] is Mus musculus. As to the kind of experiment: Percent of radioactivity that accumulated in kidney of mice at 24 h.

As for “1,4,7,10tetraaza-Cyclododecane-1,4,7,10-tetracarboxylic acid with yttrium”, the values for the ID/g in the series listed under Mus musculus [1], in the series listed under Mus musculus [2] and in the series listed under Mus musculus [3] were 0.05%, 1.47% and 0.54%, respectively.

The record behind these values is ChEMBL document CHEMBL1135996, “Synthesis and biological evaluation of novel macrocyclic ligands with pendent donor groups as potential yttrium chelators for radioimmunotherapy with improved complex formation kinetics” (J Med Chem, 2002).
